The test system of assay [1] is serotonin 1A receptor of medulla oblongata. The settings on record: through serotonin 1A receptor of medulla oblongata; cited from earlier work.
In assay [2] the test system is serotonin 1A receptor. The settings on record: background statement; cited from earlier work.
The target of assay [3] is T1, serotonin 1A (5-HT1A) receptor (Rattus norvegicus, UniProt P19327).
T1 sequence (P19327 1-422): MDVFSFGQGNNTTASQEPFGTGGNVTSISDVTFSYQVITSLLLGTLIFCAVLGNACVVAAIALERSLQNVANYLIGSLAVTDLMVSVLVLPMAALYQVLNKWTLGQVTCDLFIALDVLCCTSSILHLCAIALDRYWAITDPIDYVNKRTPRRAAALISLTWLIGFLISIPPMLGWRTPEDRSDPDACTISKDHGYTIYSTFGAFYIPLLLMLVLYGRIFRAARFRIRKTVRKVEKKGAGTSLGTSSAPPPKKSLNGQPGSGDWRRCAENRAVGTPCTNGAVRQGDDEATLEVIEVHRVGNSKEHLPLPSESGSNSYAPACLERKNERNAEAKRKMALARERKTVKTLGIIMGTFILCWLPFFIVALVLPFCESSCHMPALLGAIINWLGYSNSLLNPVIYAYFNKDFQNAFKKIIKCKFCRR
The experiment in a line: Affinity for serotonin 1A (5-HT1A) receptor, 3H-8-OH-DPAT binding test. The settings on record: rat hippocampus, 0.2 nM 3H-8-OH-DPAT, pH 7.4, 37° C., 10 min. The protocol: Affinity for serotonin 1A (5-HT1A) receptor [^3 H-8-Hydroxy-2-dipropylaminotetralin (^3 H-8-OH-DPAT) binding test]
Preparation of crude synaptosome fraction and binding assay were conducted in accordance with the method reported in Journal of Neurochemistry, vol. 44, page 1685, 1985 by Hall et al. Freezed hippocampus dissected out from rats were homogenized in 40 volumes of ice-cold 50 mM Tris-HCl buffer (pH 7.4) and the suspension was centrifuged at 500×g for 10 minutes at 0° C. The supernatant was centrifuged at 40,000×g for 20 minutes at 0° C. and the resulting pellet was homogenized in 40 volumes of the above buffer and incubated at 37° C. for 10 minutes. After completion of reaction, the suspension was centrifuged at 40,000×g for 20 minutes at 0° C. The resulting pellet was washed twice by resuspension in 40 volumes of the above buffer and centrifugation, and finally suspended in 60 volumes of ice-cold 50 mM Tris-HCl buffer (pH 7.4) containing 1 mM manganese chloride for use in the next assay.
To the aliquots (900 μl) of synaptosome membranes solution were added 50 μl of tritiated 8-OH-DPAT solution at the terminal concentration of 0.2 nM and 50 μl of test compound solution or 50 μl of its medium, and incubated at 37° C. for 10 minutes. Then, to the mixture was added 5 ml of ice-cold 50 mM Tris-HCl buffer (pH 7.4), rapidly vacuum-filtered through Whatman GF/B filters and washed twice with 5 ml of the same buffer. The radioactivity of the residue remaining on the filters was measured by liquid scintillation counter. Nonspecific binding was determined under the presence of 10^-5 M serotonin (5-HT). 50% Inhibition concentration (IC50) of the test compound was graphically determined and the inhibition constant (Ki value) was calculated.

Assay [4] has as its target T2, serotonin 2 (5-HT2) receptor (Rattus norvegicus, UniProt P14842).
T2 construct: Freezed cerebral cortex dissected out from rats were homogenized; from tissue; host or cells: rat cerebral cortex, crude synaptosome fraction
The assay is described as follows: Affinity for serotonin 2 (5-HT2) receptor, 3H-Ketanserin binding test. The settings on record: rat cerebral cortex, 0.2 nM 3H-Ketanserin, pH 7.7, 37° C., 20 min. As for the experimental part: Affinity for serotonin 2 (5-HT2) receptor (^3 H-Ketanserin binding test)
Preparation of crude synaptosome fraction and binding assay were conducted according to the method reported in Molecular Pharmacology, vol. 21, page 301, 1981 by Leysen et al.
Freezed cerebral cortex dissected out from rats were homogenized in 30 volumes of ice-cold 0.32 M sucrose solution and the suspension was centrifuged at 1000×g for 10 minutes at 10° C. The supernatant was centrifuged at 40,000×g for 20 minutes at 0° C. and the resulting pellet was homogenized in 30 volumes of ice-cold 50 mM Tris-HCl buffer (pH 7.7), and incubated at 37° C. for 10 minutes. The suspension was centrifuged at 40,000×g for 20 minutes at 0° C. again. The resulting pellet was homogenized in 100 volumes of the above buffer and provided as synaptosome membranes solution for the next assay.
To the aliquots (900 μl) of synaptosome membranes solution were added 50 μl of ^3 H-Ketanserin solution at the terminal concentration of 0.2 nM and 50 μl of test compound solution or 50 μl of its medium, and incubated at 37° C. for 20 minutes. After completion of the reaction, the mixture was rapidly vacuum-filtered through Whatman GF/B filters. The filters were washed three times with 5 ml of the above buffer, and then the radioactivity of the residue remaining on the filters was measured by liquid scintillation counter. Nonspecific binding was determined under the presence of 10 μM of mianserin. 50% Inhibition concentration (IC50) of the test compound was graphically determined and the inhibition constant (Ki value) was calculated.

Assay [5] deals with dopamine 2 (D2) receptor (Rattus norvegicus, UniProt P61169). The assay is described as follows: Affinity for dopamine 2 (D2) receptor, 3H-Spiperone binding test. The settings on record: rat corpus striatum, 0.2 nM 3H-Spiperone, pH 7.1, 37° C., 20 min.
Chain of dopamine 2 (D2) receptor (P61169 whole entry): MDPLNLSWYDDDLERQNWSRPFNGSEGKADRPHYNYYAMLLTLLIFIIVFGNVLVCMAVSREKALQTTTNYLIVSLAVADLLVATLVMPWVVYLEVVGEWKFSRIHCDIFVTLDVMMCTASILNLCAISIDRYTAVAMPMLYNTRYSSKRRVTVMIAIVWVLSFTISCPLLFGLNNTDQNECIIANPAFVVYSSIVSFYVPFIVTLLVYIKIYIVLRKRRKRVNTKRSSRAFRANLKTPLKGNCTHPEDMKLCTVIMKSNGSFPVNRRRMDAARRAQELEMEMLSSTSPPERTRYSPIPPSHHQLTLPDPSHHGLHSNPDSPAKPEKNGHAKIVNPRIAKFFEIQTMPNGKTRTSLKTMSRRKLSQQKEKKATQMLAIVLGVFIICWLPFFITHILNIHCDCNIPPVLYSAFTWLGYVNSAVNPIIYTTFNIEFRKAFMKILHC
For assay [6], the system named is Wistar rats. The assay is described as follows: Anxiolytic effect (Vogel type conflict test). The format is in vivo. The settings on record: Rattus norvegicus, po; orally 1 hour before test; lowest dose significantly different from 0.5% MC control, P<0.05; read-out: Anxiolytic effect MED (minimum effective dose). As for the experimental part: Anxiolytic effect (Vogel type conflict test) The test was conducted according to the method of Vogel et al. Wistar rats deprived of water for 72 hours before the test were used. The rats were placed in a plexiglas conflict test box (light compartment: 38×38×20 cm, dark compartment: 10×10×20 cm). A water bottle with a stainless steel spout was fitted to the middle of the outside, so that the spout extended 3 cm into the box at a height of 10 cm above the grid floor. A drinkometer circuit (Ohara Inc., Nihon Koden) was connected with the spout and the number of licks were counted. The rat was placed into the apparatus where an electric shock (0.2-0.3 mA, 0.3 sec) was given once every 20th lick. After the rat received first electric shock, the number of shocks were recorded during the subsequent 3 min. test period. The test compounds were administered orally 1 hour before the test. The minimum effective dose (MED) was defined as the lowest dose producing a statistically significant difference between 0.5% MC-treated (control) and test drug treated punished responses (One-way ANOVA test; P<0.05).

Assay [7] deals with serotonin 1A receptor. As to conditions: by an interaction with serotonin 1A receptor; cited from earlier work.
The subject of assay [8] is benzodiazepine receptor. The settings on record: background statement; cited from earlier work.

Molecules are shown by their SMILES. Where a name gives a salt, the structure may show the parent alone. Bounds are passed on as bounds.

The Ki is the equilibrium dissociation constant of an inhibitor or competing ligand from its target. Lower therefore signals a stronger hold on the target.

T2 sequence (P14842 whole entry): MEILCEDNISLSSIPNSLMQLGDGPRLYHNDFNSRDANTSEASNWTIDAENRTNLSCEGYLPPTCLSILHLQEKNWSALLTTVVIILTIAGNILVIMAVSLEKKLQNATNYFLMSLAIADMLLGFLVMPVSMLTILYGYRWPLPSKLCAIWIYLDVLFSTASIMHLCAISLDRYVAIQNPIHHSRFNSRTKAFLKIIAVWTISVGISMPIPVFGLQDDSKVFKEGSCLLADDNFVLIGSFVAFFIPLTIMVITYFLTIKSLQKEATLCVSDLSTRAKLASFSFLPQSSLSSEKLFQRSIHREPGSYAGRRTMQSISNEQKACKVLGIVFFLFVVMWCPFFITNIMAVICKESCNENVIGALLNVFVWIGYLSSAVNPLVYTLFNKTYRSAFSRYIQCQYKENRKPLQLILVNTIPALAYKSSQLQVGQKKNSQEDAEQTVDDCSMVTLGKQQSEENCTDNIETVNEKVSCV

`CCCN(CCC)C1CCc2cccc(O)c2C1` (centres unmarked) [8-hydroxy-2-dipropylaminotetralin]: the “effect on blood pressure” value in assay [1] is on record as “lowers blood pressure”. In assay [2], the “affinity for serotonin 1A receptor” value is “high affinity”.
For the compound `CC(=O)c1cc2c(s1)CCCN(CCCCN1CCN(c3ncccn3)CC1)C2=O` [13 (maleate)], the Ki is 1.6 nM in assay [3], 1400 nM in assay [4] and 190 nM in assay [5]. The minimal effective dose in assay [6] was found to be 1 mg/kg.
On the same counts, the results for `Cc1cc2c(s1)CCCN(CCCCN1CCN(c3ncccn3)CC1)C2=O` [15 (hydrochloride)] are 2.1 nM, 1500 nM, 140 nM and 2.5 mg/kg.
As to `O=C1c2cc(Br)sc2CCCN1CCCCN1CCN(c2ncccn2)CC1` [Example 11, 2-Bromo-5-[4-(4-(2-pyrimidinyl)-1l-piperazinyl)butyl]-5,6,7,8-tetrahydro-4H-thieno[3,2-c]azepin-4-one fumarate], the figures for the Ki in assay [3], in assay [4] and in assay [5] were 0.89 nM, 900 nM and 100 nM, respectively.
For `CCc1cc2c(s1)CCCN(CCCCN1CCN(c3ncccn3)CC1)C2=O.O=C(O)/C=C/C(=O)O` [Example 46, 2-ethyl-5-[4-(4-(2-pyrimidinyl)-1-piperazinyl)butyl]-5,6,7,8-tetrahydro-4H-thieno[3,2-c]azepin-4-one fumarate], the Ki in assay [3] was determined as 1.3 nM; in assay [4] it was 990 nM; in assay [5], 78 nM. Also, in assay [6], the minimal effective dose was ≤ 1 mg/kg.
`O=C1c2ccsc2SCCN1CCCCN1CCN(c2ncccn2)CC1` [Example 103, 2,3-dihydro-4-[4-(4-(2-pyrimidinyl)-1-piperazinyl)butyl]thieno[3,2-f]-1,4-thiazepin-5( (4H)-one fumarate]: the Ki in assay [3] amounted to 5.2 nM; in assay [4] it was 1800 nM; in assay [5] it was 1800 nM.
In the case of `O=C1c2cc(Br)sc2SCCN1CCCCN1CCN(c2ncccn2)CC1` [Example 107, 7-bromo-2,3-dihydro-4-[4-(4-(2-pyrimidinyl)-1-piperazinyl)butyl]thieno[3,2-f]-1,4-thiazepin-5(4H)-one fumarate 1/2 hydrate], the Ki worked out at 1.5 nM in assay [3], 990 nM in assay [4] and 120 nM in assay [5].
With `CC(=O)c1cc2c(s1)SCCN(CCCCN1CCN(c3ncccn3)CC1)C2=O` [Example 117, 7-acetyl-2,3-dihydro-4-[4-(4-(2-pyrimidinyl)-1-piperazinyl)butyl]thieno[3,2-f]-1,4-thiazepin-5(4H)-one], the Ki in assay [3] came out at 4.1 nM; in assay [4] it was 1800 nM; in assay [5] it was 270 nM. Moreover, the minimal effective dose in assay [6] was determined as 5 mg/kg.
In the case of `CCc1cc2c(s1)SCCN(CCCCN1CCN(c3ncccn3)CC1)C2=O` [Example 121, 7-ethyl-2,3-dihydro-4-[4-(4-(2-pyrimidinyl)-1-piperazinyl)thieno[3,2-f]-1,4-thiazepin-5(4H)-one hydrochloride 3/2 hydrate], the Ki is 1.4 nM in assay [3], 1100 nM in assay [4] and 150 nM in assay [5].
On to `CC(O)c1cc2c(s1)CCCN(CCCCN1CCN(c3ncccn3)CC1)C2=O.O=C(O)/C=C\C(=O)O` (centres unmarked) [Example 155, 2-(1-Hydroxyethyl)-5-[4-(4-(2-pyrimidinyl)-1-piperazinyl)butyl]-5,6,7,8-tetrahydro-4H-thieno[3,2-c]azepin-4-one maleate], for which the Ki in assay [3] amounted to 0.81 nM; in assay [4], 2100 nM; in assay [5] it was 170 nM. The minimal effective dose in assay [6] was 2.5 mg/kg.
`Cc1cc2c(s1)CCCN(CCCCNCC1COc3ccccc3O1)C2=O.Cl` (centres unmarked) [Example 163, 5-[4-((1,4-Benzodioxan-2-yl)methylamino)butyl]-2-methyl-5,6,7,8-tetrahydro-4H-thieno[3,2-c]azepin-4-one hydrochloride]: the Ki in assay [3] stood at 0.15 nM; in assay [4], 1200 nM; in assay [5] it was 6.2 nM. Further, the minimal effective dose in assay [6] came to 2.5 mg/kg.
For the compound `O=C1CC2(CCCC2)CC(=O)N1CCCCN1CCN(c2ncccn2)CC1` [buspirone], in assay [7], the antianxietic action entry was “exhibits antianxietic action”. The “binding to benzodiazepine receptor” value in assay [8] was “not to bind”. For the same compound, the “affinity for serotonin 1A receptor” value in assay [2] is reported as “high affinity”.

Source of the values: patent US5141930A, “Fused thiophene compounds and uses thereof” (Yoshitomi Pharmaceutical Industries, Ltd., priority 1990, dated 1992).
